Data taken from ChEMBL document CHEMBL1147408, “Modulation of selective serotonin reuptake inhibitor and 5-HT1A antagonist activity in 8-aza-bicyclo[3.2.1]octane derivatives of 2,3-dihydro-1,4-benzodioxane” (Bioorg Med Chem Lett, 2004).

What was measured:
[1] = target: T1, Adrenergic receptor alpha-1 (Rattus norvegicus, UniProt P15823+P23944+P43140); assay: Displacement of [3H]prazosin from alpha-1 adrenergic receptor; format: protein assay
T1 sequence (P15823 whole entry): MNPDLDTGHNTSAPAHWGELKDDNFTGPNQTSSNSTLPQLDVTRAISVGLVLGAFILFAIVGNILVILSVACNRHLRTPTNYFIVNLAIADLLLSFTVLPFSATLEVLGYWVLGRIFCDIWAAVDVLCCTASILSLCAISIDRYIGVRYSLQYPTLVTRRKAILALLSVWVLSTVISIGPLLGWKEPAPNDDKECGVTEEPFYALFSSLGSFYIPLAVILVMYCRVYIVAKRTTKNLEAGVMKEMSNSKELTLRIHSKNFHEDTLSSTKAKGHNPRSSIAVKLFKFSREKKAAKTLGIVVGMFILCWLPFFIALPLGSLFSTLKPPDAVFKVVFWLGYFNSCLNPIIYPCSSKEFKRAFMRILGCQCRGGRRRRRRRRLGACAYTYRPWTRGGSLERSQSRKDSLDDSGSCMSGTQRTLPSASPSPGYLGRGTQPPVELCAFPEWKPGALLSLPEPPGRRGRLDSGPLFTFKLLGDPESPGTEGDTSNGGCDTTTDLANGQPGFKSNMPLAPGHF
T1 sequence (P23944 whole entry): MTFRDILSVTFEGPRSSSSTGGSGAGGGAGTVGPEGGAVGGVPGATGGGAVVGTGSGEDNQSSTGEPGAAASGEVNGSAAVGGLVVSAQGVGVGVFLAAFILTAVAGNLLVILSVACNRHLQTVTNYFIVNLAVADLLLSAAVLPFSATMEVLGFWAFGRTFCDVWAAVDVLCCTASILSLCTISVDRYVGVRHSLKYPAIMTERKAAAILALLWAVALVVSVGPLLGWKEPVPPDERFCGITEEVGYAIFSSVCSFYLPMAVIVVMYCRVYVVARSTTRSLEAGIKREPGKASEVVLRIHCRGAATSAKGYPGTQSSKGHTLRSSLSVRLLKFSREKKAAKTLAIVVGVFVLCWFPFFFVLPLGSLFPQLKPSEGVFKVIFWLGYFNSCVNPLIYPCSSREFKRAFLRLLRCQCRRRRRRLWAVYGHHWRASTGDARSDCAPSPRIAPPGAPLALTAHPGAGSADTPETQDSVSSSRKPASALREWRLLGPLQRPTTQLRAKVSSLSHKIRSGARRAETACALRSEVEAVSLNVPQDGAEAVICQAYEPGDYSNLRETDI
T1 sequence (P43140 whole entry): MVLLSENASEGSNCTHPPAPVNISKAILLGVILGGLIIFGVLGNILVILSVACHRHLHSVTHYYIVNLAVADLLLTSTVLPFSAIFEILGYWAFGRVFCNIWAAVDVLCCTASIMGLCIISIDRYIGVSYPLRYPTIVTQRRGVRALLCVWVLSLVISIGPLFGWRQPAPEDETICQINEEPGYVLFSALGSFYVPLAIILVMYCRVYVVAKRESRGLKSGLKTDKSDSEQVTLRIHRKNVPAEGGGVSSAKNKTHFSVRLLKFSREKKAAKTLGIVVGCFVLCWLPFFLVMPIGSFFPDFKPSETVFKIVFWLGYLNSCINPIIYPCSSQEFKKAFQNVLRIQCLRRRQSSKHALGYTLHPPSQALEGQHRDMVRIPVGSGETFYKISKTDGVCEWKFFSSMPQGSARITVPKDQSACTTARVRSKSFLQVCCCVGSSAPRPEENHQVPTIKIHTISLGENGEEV

[2] = target: T2, Sodium-dependent serotonin transporter (Homo sapiens, UniProt P31645); assay: Inhibitory activity of compound against serotonin transport by HC5-5-HT transporter
[3] = target: T3, 5-hydroxytryptamine receptor 1A (Homo sapiens) (UniProt P08908); assay: Inhibition of [3H]8-OH-DPAT binding to human 5-hydroxytryptamine 1A receptor at 1000 nM compound concentration
T3 sequence (whole entry): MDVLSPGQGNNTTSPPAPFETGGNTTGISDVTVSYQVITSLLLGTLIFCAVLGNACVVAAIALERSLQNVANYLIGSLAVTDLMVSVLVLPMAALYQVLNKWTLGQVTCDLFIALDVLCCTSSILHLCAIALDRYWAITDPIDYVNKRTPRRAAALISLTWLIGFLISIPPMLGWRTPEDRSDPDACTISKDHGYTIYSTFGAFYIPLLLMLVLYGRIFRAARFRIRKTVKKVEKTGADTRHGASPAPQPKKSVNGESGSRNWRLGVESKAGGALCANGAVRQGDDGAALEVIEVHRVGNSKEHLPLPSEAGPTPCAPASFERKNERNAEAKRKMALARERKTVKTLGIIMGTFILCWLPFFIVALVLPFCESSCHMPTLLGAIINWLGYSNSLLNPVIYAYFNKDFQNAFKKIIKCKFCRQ

[4] = target: T2, Sodium-dependent serotonin transporter; assay: Inhibitory activity of compound against serotonin transport by RB5-5-HT transporter
[5] = target: T3, 5-hydroxytryptamine receptor 1A (Homo sapiens); assay: (§1) Agonistic activity of compound towards 5-hydroxytryptamine 1A receptor was evaluated by [35S]GTP-gamma-S, stimulated cAMP assay; format: functional
[6] = target: T4, 5-hydroxytryptamine receptor 1A (Homo sapiens, UniProt P08908); assay: Displacement of [3H]8-OH-DPAT from human 5-hydroxytryptamine 1A receptor expressed in CHO cells; format: cell-based
T4 sequence (P08908 whole entry): T3 sequence (whole entry)

[7] = target: T4, 5-hydroxytryptamine receptor 1A; assay: Agonistic activity of compound towards 5-hydroxytryptamine 1A receptor was evaluated by forskolin stimulated cAMP assay; format: functional
[8] = target: Sodium-dependent serotonin transporter (Rattus norvegicus) (UniProt P31652); assay: Inhibition of serotonin transporter; parameters: concentration or dose not given beside the values; conditions: concentration not given here
[9] = target: T4, 5-hydroxytryptamine receptor 1A; assay: as §1; format: functional
[10] = target: Adrenergic receptor alpha-1 (Homo sapiens) (UniProt P35348+P25100+P35368); assay: Inhibition of [3H]prazosin binding to alpha-1 adrenergic receptor at 100 nM compound concentration; format: protein assay

Sequence of Sodium-dependent serotonin transporter (Rattus norvegicus) (P31652 whole entry): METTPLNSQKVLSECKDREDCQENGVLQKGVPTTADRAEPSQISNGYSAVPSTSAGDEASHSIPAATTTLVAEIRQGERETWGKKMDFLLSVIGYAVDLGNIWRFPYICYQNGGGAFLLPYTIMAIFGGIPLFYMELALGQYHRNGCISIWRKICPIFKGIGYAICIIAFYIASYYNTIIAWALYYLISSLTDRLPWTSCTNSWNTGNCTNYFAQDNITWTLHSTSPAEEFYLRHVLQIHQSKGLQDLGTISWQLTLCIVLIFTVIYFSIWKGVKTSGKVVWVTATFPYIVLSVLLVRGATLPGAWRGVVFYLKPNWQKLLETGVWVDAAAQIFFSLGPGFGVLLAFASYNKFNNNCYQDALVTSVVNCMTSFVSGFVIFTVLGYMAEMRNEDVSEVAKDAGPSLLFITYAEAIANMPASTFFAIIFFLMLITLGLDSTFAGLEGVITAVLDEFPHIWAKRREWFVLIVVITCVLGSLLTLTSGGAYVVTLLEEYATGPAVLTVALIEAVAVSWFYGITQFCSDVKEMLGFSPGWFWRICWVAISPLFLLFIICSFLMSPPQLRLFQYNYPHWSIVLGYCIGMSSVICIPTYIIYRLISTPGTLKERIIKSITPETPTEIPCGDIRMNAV
T2 sequence (P31645 whole entry): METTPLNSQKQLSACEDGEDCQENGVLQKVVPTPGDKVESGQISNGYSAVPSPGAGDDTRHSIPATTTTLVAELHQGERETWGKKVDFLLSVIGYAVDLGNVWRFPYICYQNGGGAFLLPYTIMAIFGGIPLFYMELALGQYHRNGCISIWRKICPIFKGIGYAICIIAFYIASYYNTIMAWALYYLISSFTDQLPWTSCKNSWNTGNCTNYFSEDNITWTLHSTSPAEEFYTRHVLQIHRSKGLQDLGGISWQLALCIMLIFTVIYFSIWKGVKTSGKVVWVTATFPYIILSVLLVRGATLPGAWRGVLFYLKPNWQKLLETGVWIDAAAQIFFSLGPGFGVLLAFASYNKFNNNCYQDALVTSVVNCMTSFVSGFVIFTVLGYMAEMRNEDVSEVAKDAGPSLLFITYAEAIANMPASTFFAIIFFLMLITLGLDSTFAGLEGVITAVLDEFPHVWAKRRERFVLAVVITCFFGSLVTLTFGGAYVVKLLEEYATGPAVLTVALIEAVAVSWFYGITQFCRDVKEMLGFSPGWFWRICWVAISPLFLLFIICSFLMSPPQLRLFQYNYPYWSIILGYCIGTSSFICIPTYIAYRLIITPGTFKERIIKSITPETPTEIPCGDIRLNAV

COc1cccc2c1O[C@@H](CN1C3C=C(c4ccc5ccccc5c4)CC1CC3)CO2 (stereo partly drawn)
Ki [1]: 229 nM | IC50 [2]: 767 nM | inhibition [3]: 43% | Ki [4]: 1.4 nM

COc1cccc2c1O[C@@H](CN1[C@@H]3CC[C@H]1C[C@](O)(c1ccccc1)C3)CO2
Imax [5]: 100% | Ki [6]: 1.53 nM | IC50 [7]: 21 nM | inhibition [8]: 0% | IC50 [9]: 25 nM

CCOc1cccc2c1O[C@@H](CN1[C@@H]3CC[C@H]1C[C@](O)(c1ccccc1)C3)CO2
Ki [1]: 32.7 nM | Ki [6]: 3.05 nM | inhibition [8]: 0%

COc1cccc2c1O[C@@H](CN1[C@@H]3CC[C@H]1C[C@](O)(c1cccc(C(F)(F)F)c1)C3)CO2
Emax [5]: 90% | Ki [1]: 9.9 nM | Ki [6]: 0.33 nM | inhibition [8]: 9%

CCOc1cccc2c1O[C@@H](CN1[C@@H]3CC[C@H]1C[C@](O)(c1cccc(C(F)(F)F)c1)C3)CO2
Ki [1]: 12.9 nM | Ki [6]: 2.92 nM | inhibition [8]: 0%

CCOc1cccc2c1O[C@@H](CN1[C@@H]3CC[C@H]1C[C@](O)(c1ccccn1)C3)CO2
Ki [1]: 147 nM | Ki [6]: 61.6 nM | inhibition [8]: 6%

COc1cccc2c1O[C@@H](CN1[C@@H]3CC[C@H]1C[C@](O)(c1ccccn1)C3)CO2
Imax [5]: 100% | Ki [6]: 46 nM | inhibition [8]: 0% | IC50 [9]: 1480 nM

COc1ccccc1[C@]1(O)C[C@H]2CC[C@@H](C1)N2C[C@H]1COc2cccc(OC)c2O1
Emax [5]: 40% | Ki [6]: 39 nM | inhibition [8]: 12%

COc1cccc2c1O[C@@H](CN1C3C=C(n4ccc5cc(F)ccc54)CC1CC3)CO2 (stereo partly drawn)
Ki [1]: 71 nM | IC50 [2]: 138 nM | Ki [6]: 128 nM | Ki [4]: 8.5 nM

COc1cccc2c1O[C@@H](CN1C3C=C(c4cccc5ccccc45)CC1CC3)CO2 (stereo partly drawn)
IC50 [2]: 951 nM | Ki [6]: 357 nM | inhibition [10]: 26% | Ki [4]: 26 nM

CCOc1cccc2c1O[C@@H](CN1[C@@H]3CC[C@H]1C[C@](O)(c1ccc4ccccc4c1)C3)CO2
Ki [1]: 103.5 nM | Ki [6]: 5.87 nM | inhibition [8]: 0%

COc1cccc2c1O[C@@H](CN1[C@@H]3CC[C@H]1C[C@](O)(c1ccc4ccccc4c1)C3)CO2
Imax [5]: 100% | Ki [1]: 42 nM | Ki [6]: 0.81 nM | IC50 [7]: 21 nM | IC50 [9]: 9.85 nM

COc1cccc2c1O[C@@H](CN1C3C=C(c4cccc5cccnc45)CC1CC3)CO2 (stereo partly drawn)
Ki [1]: 46.2 nM | IC50 [2]: 109 nM | Ki [6]: 307 nM | Ki [4]: 33 nM

COc1cccc2c1O[C@@H](CN1[C@@H]3CC[C@H]1C[C@](O)(c1csc4ccccc14)C3)CO2
Emax [5]: 0% | Imax [5]: 92% | Ki [1]: 106 nM | Ki [6]: 1.6 nM | IC50 [7]: 130 nM | inhibition [8]: 0% | IC50 [9]: 36 nM

COc1cccc2c1O[C@@H](CN1C3C=C(c4ccc(Cl)c(Cl)c4)CC1CC3)CO2 (stereo partly drawn)
Ki [1]: > 1000 nM | IC50 [2]: 260 nM | inhibition [3]: 35% | Ki [4]: 4.69 nM

CCOc1cccc2c1O[C@@H](CN1[C@@H]3CC[C@H]1C[C@](O)(c1csc4ccccc14)C3)CO2
Ki [1]: 123.5 nM | Ki [6]: 16.7 nM | inhibition [8]: 4%
